Experimental data taken from patent US10946023B2, “Therapeutically active compounds and their methods of use” (Agios Pharmaceuticals, Inc., priority 2013, dated 2021).

Columns and labels:
HT1080 cells = test: HT1080 cellular assay, 2-HG by LC-MS (IDH1 R132C); format: cell-based; conditions: Homo sapiens, HT-1080
Procedure: The following describes the experimental procedures that can be used to obtain data on column 5 of Table 4.
Cells (HT1080 or U87MG) are grown in T125 flasks in DMEM containing 10% FBS, 1× penicillin/streptomycin and 500 ug/mL G418 (present in U87MG cells only). They are harvested by trypsin and seeded into 96 well white bottom plates at a density of 5000 cell/well in 100 ul/well in DMEM with 10% FBS. No cells are placed in columns 1 and 12. Cells are incubated overnight at 37° C. in 5% CO2. The next day test compounds are made up at 2× the final concentration and 100 ul are added to each cell well. The final concentration of DMSO is 0.2% and the DMSO control wells are plated in row G. The plates are then placed in the incubator for 48 hours. At 48 hours, 100 ul of media is removed from each well and analyzed by LC-MS for 2-HG concentrations. The cell plate is placed back in the incubator for another 24 hours. At 72 hours post compound addition, 10 mL/plate of Promega Cell Titer Glo reagent is thawed and mixed. The cell plate is removed from the incubator and allowed to equilibrate to room temperature. Then 100 ul of Promega Cell Titer Glo reagent is added to each well of media. The cell plate is then placed on an orbital shaker for 10 minutes and then allowed to sit at room temperature for 20 minutes. The plate is then read for luminescence with an integration time of 500 ms.
HT1080 cells are maintained in RPMI containing 10% FBS, 1× penicillin/streptomycin. […] The next day compounds are prepared in 100% DMSO and then diluted in media for a final concentration of 0.2% DMSO. Media is removed from the cell plates and 200 μL of the compound dilutions are added to each well. […] The cell plates are then allowed to incubate another 24 hours.

[1] = target: IDH1 wt/IDH1 R132H heterodimer (Homo sapiens (Human), UniProt O75874, R132H); test: IDH1 wt/R132H heterodimer NADPH depletion (diaphorase/resazurin) assay; format: biochemical; conditions: read-out: IDH1 wt/R132H NADPH/NADP IC50 not saturated
Procedure: The following describes the experimental procedures that can be used to obtain data on columns 2 and 4 of Table 4 and column 2 of Table 5.
In the primary reaction, the reduction of α-KG acid to 2-HG is accompanied by a concomitant oxidation of NADPH to NADP. The amount of NADPH remaining at the end of the reaction time is measured in a secondary diaphorase/resazurin reaction in which the NADPH is consumed in a 1:1 molar ratio with the conversion of resazurin to the highly fluorescent resorufin.
The mixture of compound, enzyme, and cofactor is pre-incubated at room temperature for 1 hr prior to the addition of alpha-ketoglutarate. To perform the secondary reaction, 10 uL of 1× buffer containing 36 μg/ml diaphorase and […] resazurin is added to the primary reaction and incubated for a further 5 minutes at 25° C. […] Compounds or compound dilutions are prepared in 100% DMSO concentration and diluted 1:50 into the final reaction. […] IC50s are determined.
IDH1 or IDH2 wildtype (wt) and mutant heterodimers are expressed and purified by methods known in the art. […] Co-expression of IDH1wt-his and IDH1R132C-flag is carried out in sf9 insect cells. […] Cells are disrupted with 4 passes through an M-Y110 Micro fluidizer (Microfluidics) set to 500 psi, and then centrifuged at 22,000 rcf for 20 min at 4° C. […]

[2] = target: IDH1-R132 homodimer enzyme (R132H) (Homo sapiens (Human), UniProt O75874, R132H); test: IDH1 R132H homodimer NADPH depletion assay (Table 4 column 3); format: biochemical
Procedure: (§1) The following describes the experimental procedures that can be used to obtain data on columns 3 and 6 of Table 4.
(§2) A test compound is prepared as 10 mM stock in DMSO and diluted to 50× final concentration in DMSO, for a 50 μl reaction mixture. IDH enzyme activity converting alpha-ketoglutarate to 2-hydroxyglutaric acid is measured using a NADPH depletion assay. In the assay the remaining cofactor is measured at the end of the reaction with the addition of a catalytic excess of diaphorase and resazurin, to generate a fluorescent signal in proportion to the amount of NADPH remaining. […] The reaction is started with the addition of 10 μl of Substrate Mix ([…], 5 mM alpha-ketoglutarate, in Assay Buffer) and the mixture is incubated for 90 minutes at room temperature.

IDH1 R132C = IDH1 R132C (Homo sapiens (Human), UniProt O75874, R132C); test: IDH1 R132C homodimer NADPH depletion assay (Table 4 column 6); format: biochemical
Procedure: as §1, §2
The concentration of NADPH and alpha-ketoglutarate in the Substrate Buffer is 20 μM and 1 mM, respectively.

IDH2 R140Q = IDH2 R140Q (Homo sapiens (Human), UniProt P48735, R140Q); test: IDH2 R140Q cofactor depletion assay (Table 4 column 7); format: biochemical
Excerpt: The following describes the experimental procedures used to obtain data on column 7 of Table 4.
The reaction is terminated by the addition of a second enzyme, diaphorase, and a corresponding substrate, resazurin. Diaphorase reduces resazurin to the highly fluorescent resorufin with the concomitant oxidation of NADPH to NADP, both halting the IDH2 reaction by depleting the available cofactor pool and facilitating quantitation of the amount of cofactor remaining after a specific time period through quantitative production of an easily detected fluorophore.
The test compound is then incubated for one hour at room temperature with the enzyme; before starting the IDH2 reaction with the addition of 10 μl of substrate mix containing 4 μM NADPH and 1.6 mM α-KG in the buffer described above. After a further 16 hours of incubation at room temperature, the reaction is halted and the remaining NADPH measured through conversion of resazurin to resorufin by the addition of 25 μl Stop Mix (36 μg/ml diaphorase enzyme and 60 μM resazurin; in buffer).

[3] = test system: U87MG pLVX-IDH2 R140Q-neo cells; test: U87MG pLVX-IDH2 R140Q-neo cell based assay, 2-HG by LC-MS; conditions: Homo sapiens, U-87 MG

IDH1 wt/IDH1 R132H heterodimer, sequence (O75874 whole entry R132H): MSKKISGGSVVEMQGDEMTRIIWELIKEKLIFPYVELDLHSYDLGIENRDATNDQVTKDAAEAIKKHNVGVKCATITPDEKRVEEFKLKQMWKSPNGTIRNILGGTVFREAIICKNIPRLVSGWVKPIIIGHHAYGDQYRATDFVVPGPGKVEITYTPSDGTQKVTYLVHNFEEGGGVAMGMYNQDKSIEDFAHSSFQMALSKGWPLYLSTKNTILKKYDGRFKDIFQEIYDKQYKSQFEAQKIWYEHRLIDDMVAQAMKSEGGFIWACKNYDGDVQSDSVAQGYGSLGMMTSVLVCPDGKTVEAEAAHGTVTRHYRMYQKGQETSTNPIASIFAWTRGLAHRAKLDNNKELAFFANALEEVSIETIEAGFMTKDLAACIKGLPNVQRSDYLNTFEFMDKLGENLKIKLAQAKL
IDH1 wt/IDH1 R132H heterodimer, sequence (O75874 whole entry, stated change not applied): as the sequence (O75874 whole entry R132H) above, with H132R counted along it
IDH2 R140Q, sequence (P48735 40-452 R140Q): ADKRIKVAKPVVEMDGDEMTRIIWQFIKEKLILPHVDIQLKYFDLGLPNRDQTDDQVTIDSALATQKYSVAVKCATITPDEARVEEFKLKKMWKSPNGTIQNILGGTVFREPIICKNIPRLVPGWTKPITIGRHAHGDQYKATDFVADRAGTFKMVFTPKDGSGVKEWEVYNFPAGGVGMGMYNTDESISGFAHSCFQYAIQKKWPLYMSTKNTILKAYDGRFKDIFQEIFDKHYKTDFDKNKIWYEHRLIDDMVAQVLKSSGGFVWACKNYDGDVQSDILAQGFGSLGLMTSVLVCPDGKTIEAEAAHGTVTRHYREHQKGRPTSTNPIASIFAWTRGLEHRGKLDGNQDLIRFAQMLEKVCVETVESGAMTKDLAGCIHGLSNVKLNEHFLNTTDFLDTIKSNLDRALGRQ
IDH1 R132C, sequence (O75874 whole entry R132C): as the sequence (O75874 whole entry R132H) above, with H132C counted along it
IDH1-R132 homodimer enzyme (R132H), sequence (O75874 whole entry R132H): as the sequence (O75874 whole entry R132H) above

| Structure (SMILES) | IC50 (HT1080 cells) | also measured |
| --- | --- | --- |
| N#CC1(c2cc(Nc3nc(N[C@@H]4CCC(F)(F)C4)nc(-n4ccc(C(F)(F)F)n4)n3)ccn2)CC1 [Compound 350] | 50 to 100 nM | – |
| N#CC1(c2cc(Nc3nc(NC4CCC(F)(F)C4)nc(-n4ccc(C(F)(F)F)n4)n3)ccn2)CC1 (centres unmarked) [Compound 185] | 50 to 100 nM | – |
| FC1(F)CC[C@@H](Nc2nc(N[C@H]3CCC(F)(F)C3)nc(-c3cncc(C(F)(F)F)n3)n2)C1 [Compound 399] | < 50 nM | – |
| FC1(F)CC[C@H](Nc2nc(N[C@H]3CCC(F)(F)C3)nc(-c3cncc(C(F)(F)F)n3)n2)C1 [Compound 406] | < 50 nM | – |
| FC1(F)CC[C@H](Nc2nc(Nc3ccnc(C(F)(F)F)c3)nc(-n3ccc(C(F)(F)F)n3)n2)C1 [Compound 393] | 100 to 1000 nM | – |
| FC1(F)CCC(Nc2nc(Nc3ccnc(C(F)(F)F)c3)nc(-c3cccc(C(F)(F)F)n3)n2)C1 (centres unmarked) [Compound 178] | 100 to 1000 nM | – |
| N#CC1(c2cc(Nc3nc(NC4CCC(F)(F)C4)nc(-c4cccc(C(F)(F)F)n4)n3)ccn2)CC1 (centres unmarked) [Compound 151] | 50 to 100 nM | – |
| N#CC1(c2cc(Nc3nc(N[C@H]4CCC(F)(F)C4)nc(-c4cccc(C(F)(F)F)n4)n3)ccn2)CC1 [Compound 133] | 100 to 1000 nM | – |
| Cc1cccc(-c2nc(NC3CCC(F)(F)CC3)nc(N[C@H](C)C3CC3)n2)n1 [Compound 50] | – | IC50 [1]: < 50 nM; IC50 [2]: < 50 nM; IC50 (IDH1 R132C): 50 to 100 nM |
| FC1(F)CC[C@H](Nc2nc(Nc3ccnc(C(F)(F)F)c3)nc(-c3cccc(C(F)(F)F)n3)n2)C1 [Compound 158] | 100 to 1000 nM | – |
| CC(C)(O)CNc1nc(Nc2ccnc(C(F)(F)F)c2)nc(-c2cccc(C(F)(F)F)n2)n1 [Compound 288] | – | IC50 [1]: 100 to 1000 nM; IC50 (IDH2 R140Q): 100 to 1000 nM; IC50 [3]: 100 to 1000 nM |
| FC1(F)CC[C@@H](Nc2nc(N[C@@H]3CCC(F)(F)C3)nc(-c3cncc(C(F)(F)F)n3)n2)C1 [Compound 410] | < 50 nM | – |
| FC1(F)CCC(Nc2nc(Nc3ccnc(C(F)(F)F)c3)nc(-n3ccc(C(F)(F)F)n3)n2)C1 (centres unmarked) [Compound 173] | 50 to 100 nM | – |
| N#CC1(c2cc(Nc3nc(N[C@H]4CCC(F)(F)C4)nc(-n4ccc(C(F)(F)F)n4)n3)ccn2)CC1 [Compound 174] | 50 to 100 nM | – |
| CC(Nc1nc(Nc2ccnc(C(F)(F)F)c2)nc(-n2ccc(C(F)(F)F)n2)n1)C(F)(F)F (centres unmarked) [Compound 177] | 50 to 100 nM | – |
| N#CC1(c2cc(Nc3nc(N[C@@H]4CCC(F)(F)C4)nc(-c4cccc(C(F)(F)F)n4)n3)ccn2)CC1 [Compound 137] | 50 to 100 nM | – |
| FC1(F)CC(Nc2nc(Nc3ccnc(C(F)(F)F)c3)nc(-c3cccc(C(F)(F)F)n3)n2)C1 [Compound 190] | 100 to 1000 nM | – |
| FC1(F)CC[C@@H](Nc2nc(Nc3ccnc(C(F)(F)F)c3)nc(-c3cccc(C(F)(F)F)n3)n2)C1 [Compound 172] | 50 to 100 nM | – |
| FC1(F)CCC(Nc2nc(NC3CCC(F)(F)C3)nc(-c3cncc(C(F)(F)F)n3)n2)C1 (centres unmarked) [Compound 138] | < 50 nM | – |
